ChEMBL document CHEMBL1140509, “Rynaxypyr: a new insecticidal anthranilic diamide that acts as a potent and selective ryanodine receptor activator” (Bioorg Med Chem Lett, 2007)
Values after ≈ are worked out from the molar mass of the structure shown. Values joined by “and” are separate entries in the source; they are usually repeats but may differ in a detail not shown here. Equal values may be shown once. Active and inactive are the calls of the source. The rule behind the calls is not given here.

Tests used:
Heliothis virescens = assay: Insecticidal activity against Heliothis virescens; assay type: functional
[1] = Activation of Heliothis virescens recombinant ryanodine receptor expressed in Sf9 cells assessed as induction of calcium mobilization
Plutella xylostella = assay: Insecticidal activity against Plutella xylostella; assay type: functional
Spodoptera frugiperda = assay: Insecticidal activity against Spodoptera frugiperda; assay type: functional
Ryanodine receptor 2 [2] = biological target: T1, Ryanodine receptor 2 (Homo sapiens, UniProt Q92736); assay: Activation of ryanodine receptor in human IMR32 cells assessed as induction of calcium mobilization; assay type: cell-based
T1 sequence (Q92736 whole entry): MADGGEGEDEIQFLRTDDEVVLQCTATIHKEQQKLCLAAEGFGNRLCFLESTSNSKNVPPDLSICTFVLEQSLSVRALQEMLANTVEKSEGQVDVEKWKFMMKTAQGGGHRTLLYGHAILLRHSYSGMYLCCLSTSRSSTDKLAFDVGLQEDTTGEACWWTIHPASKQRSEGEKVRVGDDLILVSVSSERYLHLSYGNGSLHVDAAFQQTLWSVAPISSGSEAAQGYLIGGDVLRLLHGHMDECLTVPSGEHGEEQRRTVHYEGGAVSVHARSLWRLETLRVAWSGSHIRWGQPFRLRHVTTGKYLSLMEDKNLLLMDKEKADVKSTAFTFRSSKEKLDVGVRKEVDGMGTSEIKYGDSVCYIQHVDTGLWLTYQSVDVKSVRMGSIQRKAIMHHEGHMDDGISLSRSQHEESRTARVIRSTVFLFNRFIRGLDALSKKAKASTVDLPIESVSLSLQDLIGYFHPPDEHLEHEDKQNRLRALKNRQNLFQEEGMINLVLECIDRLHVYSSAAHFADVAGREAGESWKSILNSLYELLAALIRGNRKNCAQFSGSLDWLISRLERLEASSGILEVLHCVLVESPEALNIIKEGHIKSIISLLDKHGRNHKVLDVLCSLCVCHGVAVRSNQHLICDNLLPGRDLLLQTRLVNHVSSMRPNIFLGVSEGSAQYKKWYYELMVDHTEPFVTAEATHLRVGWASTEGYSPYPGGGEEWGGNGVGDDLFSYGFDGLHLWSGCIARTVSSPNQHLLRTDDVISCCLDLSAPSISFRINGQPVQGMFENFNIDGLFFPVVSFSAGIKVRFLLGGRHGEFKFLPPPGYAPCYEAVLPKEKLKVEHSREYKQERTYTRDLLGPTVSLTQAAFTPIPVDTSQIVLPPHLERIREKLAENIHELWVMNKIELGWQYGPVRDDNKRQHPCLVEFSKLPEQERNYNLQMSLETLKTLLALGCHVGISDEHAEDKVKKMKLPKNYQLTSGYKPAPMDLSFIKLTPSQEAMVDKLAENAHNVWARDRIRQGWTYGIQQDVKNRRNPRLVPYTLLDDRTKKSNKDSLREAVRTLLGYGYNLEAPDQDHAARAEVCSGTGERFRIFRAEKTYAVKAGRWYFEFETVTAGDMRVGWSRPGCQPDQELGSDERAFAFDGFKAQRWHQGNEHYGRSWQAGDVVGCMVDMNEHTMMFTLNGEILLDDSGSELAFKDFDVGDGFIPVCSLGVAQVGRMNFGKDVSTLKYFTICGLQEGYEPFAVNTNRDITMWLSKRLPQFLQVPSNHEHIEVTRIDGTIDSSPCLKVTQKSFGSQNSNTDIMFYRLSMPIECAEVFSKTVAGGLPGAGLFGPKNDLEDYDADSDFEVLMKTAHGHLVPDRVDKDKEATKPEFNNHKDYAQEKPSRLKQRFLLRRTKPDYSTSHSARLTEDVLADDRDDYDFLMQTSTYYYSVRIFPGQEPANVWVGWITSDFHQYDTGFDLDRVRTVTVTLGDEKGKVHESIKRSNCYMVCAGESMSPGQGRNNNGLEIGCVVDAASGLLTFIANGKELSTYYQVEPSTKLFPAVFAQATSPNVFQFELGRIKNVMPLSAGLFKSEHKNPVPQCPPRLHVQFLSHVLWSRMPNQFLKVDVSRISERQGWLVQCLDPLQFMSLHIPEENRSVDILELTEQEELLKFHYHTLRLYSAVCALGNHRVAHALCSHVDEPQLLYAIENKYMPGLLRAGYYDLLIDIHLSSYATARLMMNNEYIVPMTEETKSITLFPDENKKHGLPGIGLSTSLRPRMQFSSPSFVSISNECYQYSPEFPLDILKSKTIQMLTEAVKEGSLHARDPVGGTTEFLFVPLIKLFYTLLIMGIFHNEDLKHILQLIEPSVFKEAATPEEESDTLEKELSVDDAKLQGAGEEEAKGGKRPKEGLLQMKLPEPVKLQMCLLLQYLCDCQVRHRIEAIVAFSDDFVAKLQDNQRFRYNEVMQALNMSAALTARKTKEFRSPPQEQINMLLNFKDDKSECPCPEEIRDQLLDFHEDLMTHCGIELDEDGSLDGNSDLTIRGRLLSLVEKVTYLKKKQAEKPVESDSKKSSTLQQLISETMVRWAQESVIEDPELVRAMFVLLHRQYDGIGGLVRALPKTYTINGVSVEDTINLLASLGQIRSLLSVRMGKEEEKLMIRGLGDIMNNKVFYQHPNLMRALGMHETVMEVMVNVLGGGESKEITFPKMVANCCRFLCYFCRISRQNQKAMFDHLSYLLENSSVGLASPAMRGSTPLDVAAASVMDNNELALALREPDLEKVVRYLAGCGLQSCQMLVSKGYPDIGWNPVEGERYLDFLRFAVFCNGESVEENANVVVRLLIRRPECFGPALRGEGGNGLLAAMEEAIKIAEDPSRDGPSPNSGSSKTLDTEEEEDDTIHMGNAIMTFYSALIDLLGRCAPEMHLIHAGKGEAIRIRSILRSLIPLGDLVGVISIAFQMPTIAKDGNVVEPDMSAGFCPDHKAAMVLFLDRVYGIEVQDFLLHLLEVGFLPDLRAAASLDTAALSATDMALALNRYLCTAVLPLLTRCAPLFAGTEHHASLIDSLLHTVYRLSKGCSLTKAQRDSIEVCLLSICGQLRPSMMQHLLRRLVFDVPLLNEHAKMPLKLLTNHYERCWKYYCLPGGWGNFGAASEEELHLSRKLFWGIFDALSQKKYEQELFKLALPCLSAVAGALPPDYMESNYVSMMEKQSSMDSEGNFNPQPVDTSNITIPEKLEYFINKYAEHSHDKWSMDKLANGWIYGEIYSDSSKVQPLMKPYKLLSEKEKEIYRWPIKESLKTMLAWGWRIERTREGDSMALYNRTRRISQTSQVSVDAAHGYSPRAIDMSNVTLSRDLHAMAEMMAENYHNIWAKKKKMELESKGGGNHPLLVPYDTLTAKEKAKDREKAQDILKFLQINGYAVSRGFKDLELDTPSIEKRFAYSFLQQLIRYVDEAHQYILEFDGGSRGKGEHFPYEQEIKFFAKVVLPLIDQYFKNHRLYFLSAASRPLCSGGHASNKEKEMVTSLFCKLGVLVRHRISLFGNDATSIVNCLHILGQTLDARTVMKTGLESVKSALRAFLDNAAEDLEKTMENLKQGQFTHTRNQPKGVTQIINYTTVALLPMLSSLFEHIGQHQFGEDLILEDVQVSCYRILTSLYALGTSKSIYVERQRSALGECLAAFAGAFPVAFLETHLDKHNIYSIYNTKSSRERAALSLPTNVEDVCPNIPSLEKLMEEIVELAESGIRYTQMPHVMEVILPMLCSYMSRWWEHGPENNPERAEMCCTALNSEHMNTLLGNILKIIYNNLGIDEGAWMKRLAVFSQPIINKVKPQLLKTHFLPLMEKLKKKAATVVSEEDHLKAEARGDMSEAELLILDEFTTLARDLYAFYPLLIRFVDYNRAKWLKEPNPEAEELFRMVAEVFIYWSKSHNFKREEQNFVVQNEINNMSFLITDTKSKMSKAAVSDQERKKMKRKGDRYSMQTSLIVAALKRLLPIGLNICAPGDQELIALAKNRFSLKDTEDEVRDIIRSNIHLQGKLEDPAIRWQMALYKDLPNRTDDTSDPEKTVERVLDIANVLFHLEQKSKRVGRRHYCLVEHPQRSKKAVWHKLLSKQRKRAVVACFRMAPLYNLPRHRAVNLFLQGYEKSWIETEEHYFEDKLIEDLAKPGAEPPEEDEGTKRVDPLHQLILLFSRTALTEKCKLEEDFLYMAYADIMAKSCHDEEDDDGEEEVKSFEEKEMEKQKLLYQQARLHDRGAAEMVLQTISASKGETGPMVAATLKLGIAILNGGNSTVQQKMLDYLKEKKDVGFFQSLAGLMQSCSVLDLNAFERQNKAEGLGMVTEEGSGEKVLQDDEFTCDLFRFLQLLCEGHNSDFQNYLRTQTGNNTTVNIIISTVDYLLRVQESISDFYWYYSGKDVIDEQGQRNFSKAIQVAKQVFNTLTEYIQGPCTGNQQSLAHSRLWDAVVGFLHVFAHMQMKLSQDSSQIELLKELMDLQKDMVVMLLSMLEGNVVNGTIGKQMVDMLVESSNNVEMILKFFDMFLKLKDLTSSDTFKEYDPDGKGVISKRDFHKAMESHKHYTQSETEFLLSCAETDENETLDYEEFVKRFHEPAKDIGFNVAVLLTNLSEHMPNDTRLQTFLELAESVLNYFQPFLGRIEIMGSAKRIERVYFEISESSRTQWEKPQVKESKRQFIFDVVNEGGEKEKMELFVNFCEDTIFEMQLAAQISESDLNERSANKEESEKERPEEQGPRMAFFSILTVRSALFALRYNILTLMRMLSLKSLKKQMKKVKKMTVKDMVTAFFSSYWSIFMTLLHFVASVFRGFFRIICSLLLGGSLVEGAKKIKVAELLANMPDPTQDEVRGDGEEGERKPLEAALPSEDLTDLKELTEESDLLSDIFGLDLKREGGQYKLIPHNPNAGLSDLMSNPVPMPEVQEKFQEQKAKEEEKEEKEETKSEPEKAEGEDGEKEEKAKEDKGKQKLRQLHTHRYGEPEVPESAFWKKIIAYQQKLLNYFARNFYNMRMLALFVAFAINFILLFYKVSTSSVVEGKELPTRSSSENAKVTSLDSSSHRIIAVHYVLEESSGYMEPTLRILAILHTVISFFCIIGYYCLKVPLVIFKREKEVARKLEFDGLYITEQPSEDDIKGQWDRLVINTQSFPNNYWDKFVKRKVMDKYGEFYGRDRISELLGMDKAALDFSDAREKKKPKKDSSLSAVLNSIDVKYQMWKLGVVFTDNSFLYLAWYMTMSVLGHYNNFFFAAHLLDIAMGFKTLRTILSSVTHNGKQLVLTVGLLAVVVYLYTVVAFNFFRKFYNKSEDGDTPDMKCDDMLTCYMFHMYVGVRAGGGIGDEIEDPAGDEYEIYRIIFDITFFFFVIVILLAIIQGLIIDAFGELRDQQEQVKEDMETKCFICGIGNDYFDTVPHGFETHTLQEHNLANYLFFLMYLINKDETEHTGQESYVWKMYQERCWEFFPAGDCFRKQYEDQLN

Ryanodine receptor 2 [3] = biological target: T1, Ryanodine receptor 2; assay: Activation of ryanodine receptor in human IMR32 cells assessed as induction of calcium mobilization at 100 uM; assay type: cell-based; conditions: IMR-32
Ryanodine receptor = Ryanodine receptor (Drosophila melanogaster, UniProt Q24498); assay: Activation of Drosophila melanogaster ryanodine receptor in Sf9 cells assessed as induction of calcium mobilization; assay type: cell-based
Rattus norvegicus = assay: Toxicity in rat above 1000 mg/kg/day; assay type: organism-based; conditions: in vivo
[4] = Activation of ryanodine receptor in mouse C2C12 cells assessed as induction of calcium mobilization; assay type: cell-based
[5] = Toxicity in po dosed rat; assay type: organism-based; conditions: in vivo
Oryctolagus cuniculus = assay: Toxicity in rabbit above 1000 mg/kg/day; assay type: organism-based; conditions: in vivo
PC-12 = assay: Activation of ryanodine receptor in rat PC12 cells assessed as induction of calcium mobilization at 100 uM; assay type: cell-based
[6] = Activation of ryanodine receptor in rat PC12 cells assessed as induction of calcium mobilization; assay type: cell-based; conditions: PC-12

SMILES	LC50 (Heliothis virescens)	EC50 [1]	LC50 (Plutella xylostella)	LC50 (Spodoptera frugiperda)	also measured
Cc1cc(Cl)cc(C(=O)NC(C)C)c1NC(=O)c1cc(Cl)nn1-c1ncccc1Cl	0.05 µg/mL (≈ 0.107 µM)	270 nM	0.09 µg/mL (≈ 0.193 µM)	0.05 µg/mL (≈ 0.107 µM)	
Cc1cc(Cl)cc(C(=O)NC(C)C)c1NC(=O)c1cc(C(F)(F)F)nn1-c1ncccc1Cl	0.02 µg/mL (≈ 0.04 µM)	1830 nM	0.01 µg/mL (≈ 0.02 µM)	0.03 µg/mL (≈ 0.06 µM)	
Cc1cc(Cl)cc(C(=O)NC(C)C)c1NC(=O)c1cc(OC(F)F)nn1-c1ncccc1Cl	0.12 µg/mL (≈ 0.241 µM)	511 nM	0.1 µg/mL (≈ 0.201 µM)	0.14 µg/mL (≈ 0.281 µM)	
Cc1cc(C(F)(F)F)cc(C(=O)NC(C)C)c1NC(=O)c1cc(C(F)(F)F)nn1-c1ncccc1Cl	0.11 µg/mL (≈ 0.206 µM)	3700 nM	0.07 µg/mL (≈ 0.131 µM)	0.39 µg/mL (≈ 0.731 µM)	
COc1cc(C(=O)Nc2c(C)cc(Cl)cc2C(=O)NC(C)C)n(-c2ncccc2Cl)n1	1.14 µg/mL (≈ 2.47 µM)	387 nM	0.18 µg/mL (≈ 0.389 µM)	0.3 µg/mL (≈ 0.649 µM)	
Cc1cc(Cl)cc(C(=O)NC(C)C)c1NC(=O)c1cc(Br)nn1-c1ncccc1Cl	0.02 µg/mL (≈ 0.0391 µM)	458 nM	0.04 µg/mL (≈ 0.0782 µM)	0.04 µg/mL (≈ 0.0782 µM)	
CNC(=O)c1cc(Cl)cc(C)c1NC(=O)c1cc(Cl)nn1-c1ncccc1Cl	0.07 µg/mL (≈ 0.16 µM)	69 nM	0.03 µg/mL (≈ 0.0684 µM)	0.03 µg/mL (≈ 0.0684 µM)	
CNC(=O)c1cc(Cl)cc(C)c1NC(=O)c1cc(OCC(F)(F)F)nn1-c1ncccc1Cl	0.24 µg/mL (≈ 0.478 µM)	240 nM	0.04 µg/mL (≈ 0.0796 µM)	0.11 µg/mL (≈ 0.219 µM)	
Cc1cc(Cl)cc(C(=O)NC(C)C)c1NC(=O)c1cc(OCC(F)(F)F)nn1-c1ncccc1Cl	0.09 µg/mL (≈ 0.17 µM)	2730 nM	0.01 µg/mL (≈ 0.0189 µM)	0.03 µg/mL (≈ 0.0566 µM)	
Cc1cc(Br)cc(C(=O)NC(C)C)c1NC(=O)c1cc(C(F)(F)F)nn1-c1ncccc1Cl	0.03 µg/mL (≈ 0.0551 µM)	1570 nM	0.01 µg/mL (≈ 0.0184 µM)	0.03 µg/mL (≈ 0.0551 µM)	
Cn1c(=O)c2c(ncn2C)n(C)c1=O					Activity (Ryanodine receptor 2 [2]; IMR-32): Dose-dependent effect
CNC(=O)c1cc(Cl)cc(C)c1NC(=O)c1cc(C(F)(F)F)nn1-c1ncccc1Cl	0.05 µg/mL (≈ 0.106 µM)	73 nM	0.01 µg/mL (≈ 0.0212 µM)	0.02 µg/mL (≈ 0.0424 µM)	
CNC(=O)c1cc(C(F)(F)F)cc(C)c1NC(=O)c1cc(C(F)(F)F)nn1-c1ncccc1Cl	0.66 µg/mL (≈ 1.3 µM)		0.09 µg/mL (≈ 0.178 µM)	0.53 µg/mL (≈ 1.05 µM)	
CNC(=O)c1cc(Br)cc(C)c1NC(=O)c1cc(Br)nn1-c1ncccc1Cl	0.11 µg/mL (≈ 0.208 µM)	63 nM	0.06 µg/mL (≈ 0.114 µM)	0.18 µg/mL (≈ 0.341 µM)	
CNC(=O)c1cc(Cl)cc(C)c1NC(=O)c1cc(OC)nn1-c1ncccc1Cl	2.43 µg/mL (≈ 5.6 µM)	101 nM	0.33 µg/mL (≈ 0.76 µM)	0.68 µg/mL (≈ 1.57 µM)	
CNC(=O)c1cc(I)cc(C)c1NC(=O)c1cc(C(F)(F)F)nn1-c1ncccc1Cl	0.21 µg/mL (≈ 0.373 µM)	205 nM	0.1 µg/mL (≈ 0.177 µM)	0.26 µg/mL (≈ 0.461 µM)	
CNC(=O)c1cc(I)cc(C)c1NC(=O)c1cc(Br)nn1-c1ncccc1Cl	0.16 µg/mL (≈ 0.278 µM)	118 nM	0.07 µg/mL (≈ 0.122 µM)	0.13 µg/mL (≈ 0.226 µM)	
CNC(=O)c1cc(Cl)cc(C)c1NC(=O)c1cc(OC(F)F)nn1-c1ncccc1Cl	1.08 µg/mL (≈ 2.3 µM)	60 nM	0.38 µg/mL (≈ 0.808 µM)	0.21 µg/mL (≈ 0.447 µM)	
CNC(=O)c1cc(Cl)cc(C)c1NC(=O)c1cc(Br)nn1-c1ncccc1Cl [CHLORANTRANILIPROLE]	0.04 µg/mL (≈ 0.0828 µM)	52 nM and 50 nM	0.02 µg/mL (≈ 0.0414 µM)	0.02 µg/mL (≈ 0.0414 µM)	Activity (Ryanodine receptor 2 [3]): inactive; EC50 (Ryanodine receptor): 40 nM; Activity (Rattus norvegicus): Non-toxic; EC50 [4]: 14000 nM; LD50 [5]: > 5000 mg/kg; Activity (Oryctolagus cuniculus): Non-toxic; EC50 (Ryanodine receptor 2 [2]): > 100000 nM; Activity (PC-12): 20%; EC50 [6]: > 100000 nM
